IC50 data for 12 compounds are collected here from patent US9856256B2, “Pyridino[1,2-A]pyrimidone analogue used as P13K inhibitor” (CHIA TAI TIANQING PHARMACEUTICAL GROUP CO., LTD., priority 2014, dated 2018).

One test addresses PI3K (p110α) (Homo sapiens, UniProt P42336). Put plainly: In vitro enzyme activity assay, PI3K (p110α) kinase, Method I (HTRF). On the set-up: recombinant full-length human PI3K p110α subunit; His-tag (N); host or cells: insect cells. The format is biochemical. Conditions: 10 μM PI(4,5)P2 and 10 μM ATP), read-out: PI3K (p110α) enzyme activity_IC50. The protocol: PI3K (p110α) kinase activities of the compounds in all the examples of the present invention were tested via the following two methods, respectively.
Reaction buffer: HEPES 50 mM (pH7.0), NaN3 0.02%, BSA 0.01%. Orthovanadate 0.1 mM, and 1% DMSO.
Detection buffer: HEPES 10 mM (pH7.0), BSA 0.02%, KF 0.16 M, and EDTA 4 mM.
Enzymes for reaction: recombinant full-length human PI3K p110α subunit (molecular weight=128.4 kDa) with a His-tag at the N-terminus and unlabeled p85α subunit (molecular weight=83.6 kDa), which were expressed in insect cells.
Substrate for reaction: […] PIP2 substrate (PI(4,5)P2).
Reaction conditions: 10 μM PI(4,5)P2 and 10 μM ATP.
1. preparing the substrate in the freshly prepared reaction buffer;
(§1) 2. adding the kinase into the substrate reaction solution, and mixing gently;
3. transferring the compound dissolved in 100% DMSO into the kinase reaction solution by using Acoustic technique (Echo550; nanoliter rang), and incubating at room temperature for 10 minutes;
4. adding an appropriate concentration of ATP into the reaction system,
5. incubating at 30° C. for half an hour;
6. terminating the reaction by adding a stop solution;
7. adding the detection buffer and incubating overnight; and
8. detecting by using homogeneous time-resolved fluorescence (HTRF) method (excitation wavelength of 320 nm, measuring the ratio of the emission wavelength readings at 615 nm and 665 nm).
Background: In TR-FRET formats the signal depends on donor and acceptor labels being close together.

The target of another test is T1, mTOR (Homo sapiens, UniProt P42345).
T1 construct: recombinant human mTOR fragment (amino acid 1360-2549, molecular weight=163.9 kDa); GST-tag (N); host or cells: insect cells
Put plainly: In vitro enzyme activity assay, mTOR kinase (32P-ATP, P81 filter-binding). The test is classed as biochemical. Conditions: 4EBPI substrate, 10 μM ATP; read-out: mTOR enzyme activity_IC50. The protocol: mTOR kinase activities of the compounds in all the examples of the present invention were tested via the following method.
Reaction buffer: 20 mM Hepes (pH 7.5), 10 mM MgCl2, 2 mM MnCl2, 1 mM EGTA, 0.02% Brij35, 0.02 mg/mL BSA, 0.1 mM Na3VO4, 2 mM DTT, and 2% DMSO.
Enzyme for reaction: recombinant human mTOR fragment (amino acid 1360-2549, molecular weight=163.9 kDa) with a GST-tag at the N-terminus, which was expressed in insect cells.
Substrate for reaction: recombinant full-length human 4EBPI (molecular weight=13.6 kDa) with a His-tag at the N-terminus, which was expressed in bacteria.
Reaction conditions: […] 4EBPI and 10 μM ATP.
1. adding the reaction substrate and other reaction factors into the freshly prepared reaction buffer;
as §1
3. transferring the compound dissolved in 100% DMSO into the kinase reaction solution by using Acoustic technique (Echo550; nanoliter rang), and incubating at room temperature for 20 minutes;
4. adding an appropriate concentration of ^32P-ATP into the reaction system;
5. incubating at room temperature for 2 hours;
6. detecting the kinase activity by using P81 filter-binding method.

The test system of another test is MCF-7 cells. Put plainly: In vitro cell activity assay (MCF-7, insulin stimulation, ELISA-One). The test is classed as cell-based. Conditions: Homo sapiens, MCF7, compound 2 hours in serum-free media, then 10 μg/ml insulin 30 min. The protocol:
Experimental Steps and Method Comprise:
1. MCF-7 cells were seeded at 2,5000 cells per well in a 96 well tissue culture plate in a complete media containing 10%0/FBS.
3. The cells were treated with 10 μg/ml insulin in serum-free media for 30 min.
4. During waiting period, lysis solution was prepared as below:
a) Enhancer Solution needs to be taken out from the refrigerator to be thawed.
b) Concentrated lysis solution was prepared by diluting Enhancer Solution 10-fold in 5× Lysis Buffer.
c) Lysis solution was prepared by diluting concentrated lysis solution 5-fold with ddH2O.
5. Any media were removed from wells and the wells were rinsed with PBS once quickly.
6. 50 μL of freshly prepared lysis solution were added into each well, with shaking at room temperature for 10 min.
7. After confirming that all cells get detached from wells, the lysis solution together with the cell debris was transferred to 1.5 ml tubes.
8. The tubes were vortexed several times to thoroughly mix the lysis solution and cells, and then, and then the mixture was centrifuged at 12,000 g for 10 min at 4° C.;
9. The desired number of ELISA-One microplate strips was determined. Unused strips were removed from frame and returned to storage pouch and seal. Wells for use in the assay were rinsed with 200 μL ddH2O to remove preservatives prior to use.
10. 50 μL of antibody mixture solution was added into each well. (Antibody mixture solution was prepared by mixing capture antibody reagent and detection antibody reagent equally, avoid vortexing)
11. 25 μL of lysate was added into each well of the ELISA-One microplate. The microplate was covered with adhesive seal and incubated for 1 hour at room temperature on a microplate shaker.
12. Each well was washed with 150 μL 1× wash buffer 3 times. After final wash, any remaining wash buffer was removed from wells. If necessary, leave microplate in 1× Wash Buffer for up to 30 min, until substrate mixture solution has been prepared.
13. The substrate mixture solution should be prepared when used, 100 μL of substrate mixture solution was added into each well, and then the microplate was sealed with tin foil and incubated at room temperature for 10 minutes on a microplate shaker.
14. 10 μL of stop solution was added into each well, and then mixed slightly (5-10 seconds) on a microplate shaker.
15. Corresponding ELISA-One filter set was installed to read the fluorescence signal intensity.
(In general: ELISA stands for enzyme-linked immunosorbent assay.)

T1 sequence (P42345 1360-2549): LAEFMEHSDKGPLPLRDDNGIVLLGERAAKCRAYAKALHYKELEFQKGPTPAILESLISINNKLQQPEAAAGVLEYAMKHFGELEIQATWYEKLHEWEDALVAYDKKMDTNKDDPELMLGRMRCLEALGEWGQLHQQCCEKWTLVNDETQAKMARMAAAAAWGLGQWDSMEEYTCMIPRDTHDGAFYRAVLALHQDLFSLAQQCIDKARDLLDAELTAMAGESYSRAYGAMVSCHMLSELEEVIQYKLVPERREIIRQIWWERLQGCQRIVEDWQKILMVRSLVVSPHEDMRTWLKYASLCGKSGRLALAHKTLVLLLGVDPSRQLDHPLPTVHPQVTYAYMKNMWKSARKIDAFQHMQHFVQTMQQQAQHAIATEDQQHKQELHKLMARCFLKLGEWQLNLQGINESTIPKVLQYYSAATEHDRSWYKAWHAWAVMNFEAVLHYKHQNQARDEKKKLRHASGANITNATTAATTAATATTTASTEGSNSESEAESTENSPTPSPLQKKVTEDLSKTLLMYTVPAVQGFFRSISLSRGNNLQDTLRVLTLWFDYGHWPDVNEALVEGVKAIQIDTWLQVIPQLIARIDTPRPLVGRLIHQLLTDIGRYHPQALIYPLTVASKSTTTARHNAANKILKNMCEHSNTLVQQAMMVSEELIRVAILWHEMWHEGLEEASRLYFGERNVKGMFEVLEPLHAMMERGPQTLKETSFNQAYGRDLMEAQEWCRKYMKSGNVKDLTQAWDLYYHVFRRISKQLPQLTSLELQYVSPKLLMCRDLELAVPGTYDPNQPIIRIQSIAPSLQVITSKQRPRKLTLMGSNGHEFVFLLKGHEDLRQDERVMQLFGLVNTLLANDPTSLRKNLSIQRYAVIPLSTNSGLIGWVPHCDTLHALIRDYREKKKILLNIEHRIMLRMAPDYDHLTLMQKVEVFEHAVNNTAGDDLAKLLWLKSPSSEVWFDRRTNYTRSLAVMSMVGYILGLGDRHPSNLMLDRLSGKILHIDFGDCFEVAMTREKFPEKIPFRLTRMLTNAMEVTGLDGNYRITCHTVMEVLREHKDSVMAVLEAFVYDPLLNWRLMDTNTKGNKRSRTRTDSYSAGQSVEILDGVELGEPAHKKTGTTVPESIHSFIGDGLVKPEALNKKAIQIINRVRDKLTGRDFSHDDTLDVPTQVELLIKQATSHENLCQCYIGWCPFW
Sequence of PI3K (p110α) (P42336 whole entry): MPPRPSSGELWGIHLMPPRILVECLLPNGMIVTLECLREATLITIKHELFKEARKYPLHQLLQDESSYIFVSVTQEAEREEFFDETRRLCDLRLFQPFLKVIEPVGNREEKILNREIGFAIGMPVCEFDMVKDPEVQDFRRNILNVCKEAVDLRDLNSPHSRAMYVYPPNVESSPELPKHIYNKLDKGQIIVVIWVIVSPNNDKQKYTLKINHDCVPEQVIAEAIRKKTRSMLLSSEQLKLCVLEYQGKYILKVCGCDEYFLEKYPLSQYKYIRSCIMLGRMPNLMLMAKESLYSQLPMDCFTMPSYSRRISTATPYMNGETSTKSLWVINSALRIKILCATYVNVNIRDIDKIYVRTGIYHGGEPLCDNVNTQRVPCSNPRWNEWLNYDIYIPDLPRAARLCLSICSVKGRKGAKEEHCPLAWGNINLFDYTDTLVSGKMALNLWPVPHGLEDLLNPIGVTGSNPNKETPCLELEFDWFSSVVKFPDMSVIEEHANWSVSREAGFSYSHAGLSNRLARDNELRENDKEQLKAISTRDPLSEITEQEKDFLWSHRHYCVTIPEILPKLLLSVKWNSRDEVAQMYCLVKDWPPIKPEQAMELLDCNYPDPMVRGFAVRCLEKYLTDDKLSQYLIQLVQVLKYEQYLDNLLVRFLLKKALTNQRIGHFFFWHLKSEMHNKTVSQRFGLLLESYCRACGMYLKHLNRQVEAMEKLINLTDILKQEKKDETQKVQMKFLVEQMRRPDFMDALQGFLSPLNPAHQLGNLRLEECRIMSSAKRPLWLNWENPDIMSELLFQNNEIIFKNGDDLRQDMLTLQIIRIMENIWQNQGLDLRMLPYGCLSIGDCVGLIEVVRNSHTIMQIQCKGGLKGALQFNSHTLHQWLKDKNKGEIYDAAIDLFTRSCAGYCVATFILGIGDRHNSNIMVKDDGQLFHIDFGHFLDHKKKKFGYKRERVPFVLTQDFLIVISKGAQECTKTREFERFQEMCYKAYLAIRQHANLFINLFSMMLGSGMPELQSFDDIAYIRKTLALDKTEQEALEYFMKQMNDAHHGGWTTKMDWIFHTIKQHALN
Sequence of PI3K (p110α) (P27986 whole entry partner): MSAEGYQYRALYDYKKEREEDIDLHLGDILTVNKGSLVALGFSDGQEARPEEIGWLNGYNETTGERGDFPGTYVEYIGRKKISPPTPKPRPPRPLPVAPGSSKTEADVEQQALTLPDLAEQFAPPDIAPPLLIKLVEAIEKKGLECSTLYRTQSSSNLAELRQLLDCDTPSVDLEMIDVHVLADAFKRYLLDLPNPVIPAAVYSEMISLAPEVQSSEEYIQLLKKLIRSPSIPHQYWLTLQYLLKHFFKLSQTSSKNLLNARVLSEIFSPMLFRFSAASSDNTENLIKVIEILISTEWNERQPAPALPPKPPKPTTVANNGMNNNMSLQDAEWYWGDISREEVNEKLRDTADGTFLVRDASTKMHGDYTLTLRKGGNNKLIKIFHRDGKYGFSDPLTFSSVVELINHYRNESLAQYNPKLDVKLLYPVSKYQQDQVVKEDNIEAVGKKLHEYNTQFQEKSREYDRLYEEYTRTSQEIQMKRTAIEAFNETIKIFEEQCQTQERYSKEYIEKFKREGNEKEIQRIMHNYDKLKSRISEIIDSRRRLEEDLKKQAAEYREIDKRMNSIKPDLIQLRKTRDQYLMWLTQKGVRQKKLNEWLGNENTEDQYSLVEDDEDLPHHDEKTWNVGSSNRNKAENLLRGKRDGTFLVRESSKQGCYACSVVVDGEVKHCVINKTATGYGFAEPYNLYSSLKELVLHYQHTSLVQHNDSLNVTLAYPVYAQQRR

Regarding `COc1ncc(-c2ccc3ncc(OCCN4CCOCC4)c(=O)n3c2)cc1NS(=O)(=O)c1ccccc1F` [Compound 9], the IC50 was ≤ 1 nM at PI3K (p110α), > 200 nM at mTOR and 100 to 250 nM in the test with MCF-7 cells.

Turning to `COc1ncc(-c2ccc3ncc(OCCN4CCOCC4)c(=O)n3c2)cc1NS(=O)(=O)c1ccccc1Cl` [Compound 10], the IC50 at PI3K (p110α) is ≤ 1 nM; at mTOR, > 200 nM; with MCF-7 cells, 50 to 100 nM.

`COc1ncc(-c2ccc3ncc(OCCN4CCOCC4)c(=O)n3c2)cc1NS(=O)(=O)c1ccc(F)cc1Cl` [Compound 11]: the values for the IC50 on PI3K (p110α), on mTOR and with MCF-7 cells were ≤ 1 nM, > 200 nM and ≤ 50 nM, respectively.

Take `Cc1nc(C)c(S(=O)(=O)Nc2cc(-c3ccc4ncc(OCCN5CCOCC5)c(=O)n4c3)cnc2N)s1` [Compound 12]: the IC50 is ≤ 1 nM on PI3K (p110α), 50 to 200 nM at mTOR and > 250 nM with MCF-7 cells.

For `COc1ncc(-c2ccc3ncc(OCCN4CCOCC4)c(=O)n3c2)cc1NS(=O)(=O)c1ccc(Cl)s1` [Compound 14], the IC50 on PI3K (p110α) is ≤ 1 nM; on mTOR, > 200 nM; in the test on MCF-7 cells, ≤ 50 nM.

For the compound `COc1ncc(-c2ccc3ncc(OCCN4CCOCC4)c(=O)n3c2)cc1NS(=O)(=O)c1sc(C)nc1C` [Compound 15], the IC50 at PI3K (p110α) was ≤ 1 nM; at mTOR it was 50 to 200 nM; in the test with MCF-7 cells it was ≤ 50 nM.

For the compound `COc1ncc(-c2ccc3ncc(OCCN4CCOCC4)c(=O)n3c2)cc1NS(=O)(=O)c1sc(N)nc1C` [Compound 16], the values for the IC50 on PI3K (p110α), at mTOR and with MCF-7 cells were ≤ 1 nM, 50 to 200 nM and 100 to 250 nM, respectively.

Turning to `COc1ncc(-c2ccc3ncc(OCCN(C)C)c(=O)n3c2)cc1NS(=O)(=O)c1sc(C)nc1C` [Compound 35], the IC50 was ≤ 1 nM on PI3K (p110α), 50 to 200 nM at mTOR and ≤ 50 nM in the test on MCF-7 cells.

Turning to `COc1ncc(-c2ccc3ncc(OCCN(C)C)c(=O)n3c2)cc1NS(=O)(=O)c1sccc1C` [Compound 36], the figures for the IC50 at PI3K (p110α), on mTOR and with MCF-7 cells were ≤ 1 nM, > 200 nM and ≤ 50 nM, respectively.

`COc1ncc(-c2ccc3ncc(OCCn4cccn4)c(=O)n3c2)cc1NS(=O)(=O)c1ccc(F)cc1F` [Compound 37, 2,4-Difluoro-N-(2-methoxy-5-(4-oxo-3-(2-pyrazol-1-yl-ethoxy)pyrido[1,2-a]pyrimidin-7-yl)pyridin-3-yl)benzenesulfonamide]: the IC50 was ≤ 1 nM at PI3K (p110α), 50 to 200 nM on mTOR and 100 to 250 nM in the test on MCF-7 cells.

With `COc1ncc(-c2ccc3ncc(OCCN4CCCC4)c(=O)n3c2)cc1NS(=O)(=O)c1ccc(F)cc1F` [Compound 42], the IC50 at PI3K (p110α) is ≤ 1 nM; on mTOR it was > 200 nM; in the test on MCF-7 cells it was 100 to 250 nM.

As for `COc1ncc(-c2ccc3ncc(OCCN(C)C)c(=O)n3c2)cc1NS(=O)(=O)c1ccc(F)cc1F` [Compound 43], the figures for the IC50 at PI3K (p110α), at mTOR and with MCF-7 cells were ≤ 1 nM, > 200 nM and 50 to 100 nM, respectively.
